From US11229628B2, “TRPA1 and TRPV4 inhibitors and methods of using the same for organ-specific inflammation and itch” (Duke University, priority 2015, dated 2022) come the findings set out here.

Data set [1] in a line: Stability on incubation in serum. It counts as in vitro ADME. Conditions: 3 h and 12 h incubation in serum at 37° C. The procedure:
It was also tested whether compounds are readily broken down in systemic fluid, for which serum was used.

Data set [2] concerns mice. Put plainly: UVB-evoked nocifensive behavior after topical GSK205 (Hargreaves' test, von Frey hair). Type of data set: in vivo, mouse. The procedure: (§1) A viscous solution of 68% EtOH/5% glycerol plus 1 mM or 5 mM GSK205 (none for control) was applied to hindpaws by rubbing in 20 μL, applied at time-points 1 hour and again 10 min before UV exposure.
Behavioral tests were performed to evaluate the decrease in withdrawal thresholds in response to mechanical or thermal stimuli applied to hind paws. These withdrawal thresholds were ascertained before and after UVB exposure. Mice were confined by plexi-glass enclosures on top of 25×26 cm Bio Rad Gel Doc 2000 UV transilluminator (302 nm), and otherwise allowed to openly explore this environment. UV-exposure lasted for 5 minutes with an exposure of 600 mJ/cm^2.
Hindpaw mechanical withdrawal thresholds were determined by the automated von Frey hair method, using a 0.5 mm diameter stainless steel filament, part of an automated plantar touch stimulator (Ugo Basile, Modena, Italy). Relevant detail included pre-test acclimatization in a quiet room for 30 min, conducting the test at the same time of day and blinded observers. The stimulus was delivered to the hindpaw, automatically discontinued upon withdrawal, and its intensity recorded automatically. 6-8 trials per animal were conducted, with equal exposure of both hindpaws, leading to an average withdrawal threshold. Results are reported as Δ-threshold, which was calculated by subtracting post-treatment from pre-treatment measurements, expressed as % or relative to 1.0.
Hindpaw thermal (hot) withdrawal thresholds were determined by the well-established Hargreaves' method, using an infra-red thermal stimulation device that delivers the stimulus from underneath the hindpaw combined with automatic shut-off upon withdrawal (Ugo Basile). Stimulation and measurements were conducted as described for von Frey hair testing. A cutoff of 20 sec was set to prevent tissue damage.
In view of the observed impact of epidermal-specific TRPV4-deficiency on mouse nociception in response to UVB, and because of the unambiguous effects of selective TRPV4 blockers on 1° MK in vitro, we tested the possible clinical relevance of our findings. For this purpose, we topically applied TRPV4 inhibitor GSK205 to WT mouse skin and subsequently exposed animals to UVB (FIG. 12A).

Data set [3] concerns mouse paw-pad skin. The experiment in a line: UVB-photodermatitis of mouse paw-pad skin after topical treatment (immunolabeling, histopathology, Edn1 qPCR). Type of data set: in vivo. As to the method:
as §1
Routine procedures were followed as described previously (Chen et al., 2009). Mice were perfused transcardially with 30 mL PBS, followed by 30 mL 4% paraformaldehyde. Tissues, including the L5 DRGs (bilateral), and footpad preparations, were dissected and post-fixed in 4% paraformaldehyde. Tissue blocks were further cryoprotected in 30% sucrose in PBS for 24-48 hours. For mouse TRPV4, keratin-specific antibodies, phospho-ERK, IL-6, IL-1β, CXCL5 and caspase-1, tissue was prepared as frozen blocks and subsequently sectioned on a cryostat. For CD68, CD15 (neutrophil elastase) and CD3, mouse skin was prepared by 2% PFA perfusion. Footpad and DRG sections (both at 6-10 μm) were thaw-mounted, blocked with 5% normal goat serum (NGS; Jackson), then incubated overnight at 4° C. with the following primary antibodies: rabbit anti-TRPV4 (1:300; Abcam), mouse anti-keratin 14 (1:300; Abcam against C-terminal peptide beyond residue 850); rabbit anti-keratin 14 (1:1000; Fuchs-Lab), rabbit anti-phosph-ERK1/2 (1:500; Cell signaling technologies), goat anti-IL-1β (1:800; Abcam), goat anti-IL-6 (1:200; Santa Cruz Biotechnology Inc); rabbit anti-caspase-1 (1:200; Biovision Research Products, CA); goat anti-mouse LIX/CXCL5 (1:200; R&D Systems Inc), anti-CD68, anti-[…], and anti-CD3 (AbDSerotec). Immunodetection was accomplished with appropriate fluorescently-labeled secondary antibodies (AlexaFluor595, AlexaFluor488-conjugated antibodies at 1:600; Invitrogen; for CD15 biotinylated secondary antibody from donkey, 1:400 followed by rhodamine-streptavidine 1:250), or with peroxidase-linked detection reagents (for CD68) for 2 hours at room-temperature. Sections were rinsed, mounted, and cover-slipped with fluoromount (Sigma). Digital micrographs were obtained using a BX61 Olympus upright microscope, also with a Zeiss LSM510 confocal, both equipped with high-res CCD camera, and acquired with constant exposure settings, using ISEE or Zeiss Zen software. Morphometric analysis was conducted using ImageJ freeware (v1.45) with tailored regions-of-interest that spared the nuclear compartment. ImageJ was also used for determination of DRG surface area.
In view of TRPV4-dependence of ET/Edn1 expression in skin, we measured Edn1 mRNA abundance in GSK205 vs. vehicle treated paw-pad skin. […] In striking contrast, and in keeping with histopathology, Edn1 mRNA-expression in GSK205 topically-treated skin was found unchanged.
We also tested the response of down-stream UVB effector mechanisms to GSK205 treatment in vivo.
On the technique in general: In qPCR the cycle at which signal appears reflects the starting amount.

Entries after “also recorded” stand apart in the source; their conditions may differ.

Take `CN(CCc1ccc(Nc2nc(-c3ccccc3)cs2)cc1)Cc1ccccc1` [Compound 16-8]: the “concentration of a fixed spiked amount after incubation in serum” value in data set [1] was “did not change”.

As for `CN(CCc1ccc(Nc2nc(-c3cccnc3)cs2)cc1)Cc1ccccc1` [GSK205], in data set [2] (topical 1 mM GSK205, Hargreaves' test), the “delay in thermal sensitivity after UVB” value was around 24 h. The “sensitivity to von Frey hair mechanical stimulation after UVB” value in data set [2] (topical 5 mM GSK205) is “significantly reduced sensitivity”. In addition, in data set [2] (topical 5 mM GSK205, Hargreaves' test, 48 hours post-UVB), the “thermally-evoked nocifensive behavior (thermal allodynia) after UVB” value is on record as “sustained attenuation; also recorded: significant attenuation of thermal allodynia”. Also, the “nocifensive behavior after UVB in Trpv4−/− mice (off-target effects)” value in data set [2] (topical 5 mM GSK205 vs. vehicle, Trpv4−/− mice) is “did not show any inter-group differences; also recorded: lack of off-target effects”. Moreover, in data set [3] (topical 5 mM GSK205), the “histopathology of UVB-photodermatitis” value is reported as “virtual elimination of inflammation; also recorded: markedly reduced inflammatory infiltrate”, the “keratinocyte expression of CXCL5 in UVB-exposed footpad” value is “significant blocks; also recorded: attenuates”, the “keratinocyte expression of IL-1β in UVB-exposed footpad” value is “failed to upregulate; also recorded: attenuates” and the “keratinocyte expression of IL-6 in UVB-exposed footpad” value was “significant blocks; also recorded: attenuates”. The “Edn1 mRNA expression in paw-pad skin after UVB” value in data set [3] (topical 5 mM GSK205, 2 hour and 24 hour time-points) was “unchanged; also recorded: complete lack of this regulation”.
